Experiments:
[1] = test system: primary human mobilized CD34+ cells; test: High throughput screening assay on primary human mobilized CD34+ cells, with secondary screen; type: cell-based
Excerpt: To identify novel putative agonists of HSC self-renewal, we have adapted a high throughput based-screening assay to test a library of small molecule compounds (5,280 low molecular weight compounds) on primary human mobilized CD34+ cells. It is to be understood that the same approach applies to CD34+ cells from the various sources known by a person skilled in the art to isolate CD34+ cells. Mononuclear cells were stained with Mouse antihuman CD34+APC (from BD Pharmingen) and subsequently magnetically labeled with Anti-APC magnetic MicroBeads (from MACS, Miltenyi Biotec). The magnetically labeled cells were retained using AutoMACS column. […]
In a 384-well plate, 2000 CD34^+ cells/well were cultured in 50 μl medium containing 1 μM of test compounds or 0.1% DMSO (vehicle). The proportion of CD34^+CD45RA^− cells was determined at the start of the experiment and after a 7-day incubation. Six out of the 5,280 compounds of different chemical backgrounds initially tested promoted CD34+CD45RA− cell expansion, and seventeen (17) enhanced differentiation as determined by the increase in proportions of CD34−CD45RA+ cells compared to control (DMSO). The six compounds promoting expansion of the CD34+CD45RA− cell population were re-analyzed in a secondary screen. […]

[2] = test system: Mobilized peripheral blood CD34(+) cells; test: Reversibility (wash-out) of compound effect on CD34+CD45RA− percentage (FIG. 2); type: cell-based, human; settings: for reversibility of effect on CD34+CD45RA− percentage after wash-out: 7 days with compound, washed, 8 additional days
Procedure: FIG. 2: Effect of compound 1 is reversible. Mobilized peripheral blood CD34(+) cells cultured for 7 days with compound 1 (shown in green) or vehicle (DMSO, shown in blue) were washed and re-plated in fresh media with or without Compound addition (solid vs dashed line respectively). Cells were cultured for 8 additional days and the percentage of CD34+CD45RA− was monitored.
This effect is best shown in FIG. 2 where CD34+ mobilized peripheral blood cells are cultured in the presence of Compound 1 for up to 7 days, at which time the Compound 1 is removed by washing the cells.

## COC(=O)c1ccc2c(c1)[nH]c1ncnc(NCCCN3CCCCC3)c12 [Compound 1, Methyl 4-((3-(piperidin-1-yl)propyl)amino)-9H-pyrimido[4,5-b]indole-7-carboxylate]
[1]
  aryl hydrocarbon receptor (AhR) antagonism: not being aryl hydrocarbon receptor (AhR) antagonists
[1]; 7-day incubation
  expansion of MNCs including CD34+ cells: promote the expansion of MNCs including CD34+ cells
[2]
  reversibility of effect on CD34+CD45RA− percentage after wash-out: rapidly reversible
[2]; listed as compound 1
  reversibility of effect on CD34+CD45RA− percentage after wash-out: reversible
[2]; after wash-out at day 7
  compound-free exposure until cells acquired differentiation markers as in control cultures: ≤ 2 days

Reference: patent publication US9409906B2, “Pyrimido[4,5-B]indole derivatives and use thereof in the expansion of hematopoietic stem cells” (UNIVERSITÉ DE MONTRÉAL, priority 2012, dated 2016)
